ChEMBL document CHEMBL1158738, “Constituents of the leaves and twigs of Calyptranthes pallens collected from an experimental plot in Southern Florida” (J Nat Prod, 2005)
Converted amounts (≈) assume the structure as drawn.

Key:
Lu1 = assay: Cytotoxicity against human Lu1 cells; type: functional; conditions: read-out: ED50 (the source's name)
LNCaP = assay: Cytotoxicity against human LNCAP cells; type: functional; conditions: read-out: ED50 (the source's name)
MCF7 = assay: Cytotoxicity against human MCF7 cells; type: functional; conditions: read-out: ED50 (the source's name)
KB = assay: Cytotoxicity against human KB cells; type: functional; conditions: read-out: ED50 (the source's name)
[1] = Cytotoxicity against HUVEC; type: cell-based; conditions: human, HUVEC cells; read-out: ED50 (the source's name)
[2] = Cytotoxicity against human telomerase reverse transcriptase human RPE1 cells; type: functional, TERT-RPE1; conditions: RPE-1, read-out: ED50 (the source's name)

Row | SMILES | EC50 (Lu1) | EC50 (LNCaP) | EC50 (MCF7) | EC50 (KB) | CC50 [1] | EC50 [2]
1 | CCCC(=O)c1c(O)c(C)c(OC)c(Cc2c(O)c(C(=O)CCC)c(O)c(C)c2OC)c1O | 19.4 µg/mL (≈ 42.1 µM) | 6.6 µg/mL (≈ 14.3 µM) | 7.3 µg/mL (≈ 15.9 µM) | 2.7 µg/mL (≈ 5.86 µM) | 6.1 µg/mL (≈ 13.2 µM) | 
2 | CC1=CC[C@]2(C(=O)O)CC[C@]3(C)[C@H](CC[C@@H]4[C@@]5(C)CC[C@H](O)C(C)(C)[C@@H]5CC[C@]43C)[C@H]2[C@@H]1C | 12.9 µg/mL (≈ 28.2 µM) | 7.3 µg/mL (≈ 16 µM) | 9.7 µg/mL (≈ 21.2 µM) | > 20 µg/mL | 10.4 µg/mL (≈ 22.8 µM) | 
3 | COc1cc([C@@H]2c3cc(O)c(OC)cc3C[C@@H](C)[C@H]2C)ccc1O [ISOGUAIACIN] | 15.7 µg/mL (≈ 47.8 µM) | 11.8 µg/mL (≈ 35.9 µM) | 12.4 µg/mL (≈ 37.8 µM) | 6.4 µg/mL (≈ 19.5 µM) | 14.7 µg/mL (≈ 44.8 µM) | > 20 µg/mL
